Laboratory results as given in patent publication US20070243270A1, “METHODS AND KITS FOR REDUCING CELLULAR DAMAGE, INHIBITING FREE RADICAL PRODUCTION, AND SCAVENGING FREE RADICALS IN MAMMALS” (priority 2003, published 2007).
Values after ≈ are worked out from the molar mass of the structure shown. Read-outs that look alike come from different tables or passages of the source.

Tests used:
[1] = tested on: 3PC cells; assay: ATP-bioluminescence assay, reactive oxygen species-stimulated growth of cells; type: cell-based
[2] = tested on: DMBA-induced epidermal hyperplasia; assay: Inhibition of DMBA-induced epidermal hyperplasia in mouse skin; type: in vivo, female SENCAR mice
Method: One of the best studied in vivo models for evaluation of environmental stress response effects on DNA and cell damage is the mouse skin system in which the skin is treated with a chemical compound known to damage DNA and cell structure and function. […] Exp. Med. Biol. 1995, 369, 167). […] Following dosing and treatment, skin DNA and cell structure and function were evaluated using three endpoints, epidermal hyperplasia, 8-OH-dG formation, and Ha-ras mutation. Each method is described briefly below. Seven week old, pathogen free, female SENCAR mice were purchased from the National Cancer Institute (NCI, Frederick, Md.). Mice were randomized by weight and separated into groups (n=5 mice per group). Experimental groups of mice were treated on shaved dorsal skin with antioxidants, 15 min prior to treatment with DMBA (25 μg per treatment). In topical experiments, different doses, i.e., 0.5, 1.0, 2.0, and/or 4.0 mg, of test or reference antioxidants per mouse were applied topically twice weekly for a total of 8 treatments (4 weeks). […] Negative control groups were treated with vehicle (acetone) only. […] Most antioxidants were administered in acetone. Antioxidants that were not soluble in acetone to the desired concentration, were dissolved in the necessary volume: mixture of acetone and water or ethanol. All topical treatments were administered in a final volume of 0.2 mL. […] The same control groups were maintained. Both positive and negative control groups were fed a standard AIN-93G diet (i.e., not supplemented with antioxidants). […] At sacrifice the shaved dorsal skin section was removed. […] Epidermal thickness was determined in each animal from at least 20 randomly selected sites per animal using formalin-fixed, paraffin-embedded 5 μm sections stained with hematoxylin and eosin. The remaining skin was frozen in liquid nitrogen. All frozen sections were stored at −70 C until analysis for isolation of DNA.

[3] = tested on: codon 61 of c-Ha-ras; assay: DMBA-induced Ha-ras codon 61 mutation in mouse skin DNA; type: in vivo, female SENCAR mice; settings: acetone neg. control 3.05
Method: One of the best studied in vivo models for evaluation of environmental stress response effects on DNA and cell damage is the mouse skin system in which the skin is treated with a chemical compound known to damage DNA and cell structure and function. […] Exp. Med. Biol. 1995, 369, 167). […] Following dosing and treatment, skin DNA and cell structure and function were evaluated using three endpoints, epidermal hyperplasia, 8-OH-dG formation, and Ha-ras mutation. Each method is described briefly below. Seven week old, pathogen free, female SENCAR mice were purchased from the National Cancer Institute (NCI, Frederick, Md.). Mice were randomized by weight and separated into groups (n=5 mice per group). Experimental groups of mice were treated on shaved dorsal skin with antioxidants, 15 min prior to treatment with DMBA (25 μg per treatment). […] Epidermal thickness was determined in each animal from at least 20 randomly selected sites per animal using formalin-fixed, paraffin-embedded 5 μm sections stained with hematoxylin and eosin. […] DNA isolated from freshly-frozen tissues of 5 mice per group was analyzed for […] of c-Ha-ras by PCR analysis. […] The ratio of the amount of wild type DNA to mutated DNA was determined by quantifying intensity of 32P labeling on autoradiograms. […]

[4] = 3PC cells, read-out: Estimated IC50 (mg/L) in ATP Bioluminescence Assay

Row | Compound | IC50 [1, 4] | IC50 ([1]; ATP bioluminescence, calculated on ascorbic acid content, read-out: Estimated IC50 Based on vitamin C content) | IC50 ([1]; ATP bioluminescence, read-out: Estimated IC50 based on weight) | Inhibition of DMBA-Induced Epidermal Hyperplasia ([2]; dietary 1.0%) | Inhibition of DMBA-Induced Epidermal Hyperplasia ([2]; dietary 5.0%) | Inhibition of DMBA-Induced Epidermal Hyperplasia ([2]; topical application 0.5 mg) | Inhibition of DMBA-Induced Epidermal Hyperplasia ([2]; topical application 2.0 mg) | Ha-ras Formation ([3]; topical 4 mg + DMBA) | Ha-ras Formation ([3]; DMBA only (pos. control))
1 | CC1=C[C@H](O)CC(C)(C)[C@H]1/C=C/C(C)=C/C=C/C(C)=C/C=C/C=C(C)/C=C/C=C(C)/C=C/C1=C(C)C[C@@H](O)CC1(C)C [Lutein, lutein] | 70.8 mg/L (≈ 124 µM) |  |  |  |  |  |  |  | 
2 | O=C1O[C@H]([C@@H](O)CO)C(O)=C1O [Ascorbic Acid, L-ascorbic acid] | 4.6 mg/L (≈ 26.1 µM) | 4.6 mg/L (≈ 26.1 µM) | 4.6 mg/L (≈ 26.1 µM) | 83% | 86% | 66% | 66% | 6.19 | 
3 | Cc1c2ccccc2c(C)c2c1ccc1ccccc12 [DMBA, dimethylbenzanthracene] |  |  |  |  |  |  |  |  | 18.39
